From EP4663640A1 (Shanghai Institute of Materia Medica, Chinese Academy of …, priority 2023, dated 2024)

Legend:
hTRPC5 [1] = biological target: T1, hTRPC5 (Homo sapiens, UniProt Q9UL62); assay: TRPC5 agonist activity assay (FLIPR calcium fluorescence); type: cell-based; details: Table 2, agonist activity on TRPC5 channels
T1 construct: expressed in transfected cells; host or cells: HEK-293
T1 sequence (Q9UL62 1-973): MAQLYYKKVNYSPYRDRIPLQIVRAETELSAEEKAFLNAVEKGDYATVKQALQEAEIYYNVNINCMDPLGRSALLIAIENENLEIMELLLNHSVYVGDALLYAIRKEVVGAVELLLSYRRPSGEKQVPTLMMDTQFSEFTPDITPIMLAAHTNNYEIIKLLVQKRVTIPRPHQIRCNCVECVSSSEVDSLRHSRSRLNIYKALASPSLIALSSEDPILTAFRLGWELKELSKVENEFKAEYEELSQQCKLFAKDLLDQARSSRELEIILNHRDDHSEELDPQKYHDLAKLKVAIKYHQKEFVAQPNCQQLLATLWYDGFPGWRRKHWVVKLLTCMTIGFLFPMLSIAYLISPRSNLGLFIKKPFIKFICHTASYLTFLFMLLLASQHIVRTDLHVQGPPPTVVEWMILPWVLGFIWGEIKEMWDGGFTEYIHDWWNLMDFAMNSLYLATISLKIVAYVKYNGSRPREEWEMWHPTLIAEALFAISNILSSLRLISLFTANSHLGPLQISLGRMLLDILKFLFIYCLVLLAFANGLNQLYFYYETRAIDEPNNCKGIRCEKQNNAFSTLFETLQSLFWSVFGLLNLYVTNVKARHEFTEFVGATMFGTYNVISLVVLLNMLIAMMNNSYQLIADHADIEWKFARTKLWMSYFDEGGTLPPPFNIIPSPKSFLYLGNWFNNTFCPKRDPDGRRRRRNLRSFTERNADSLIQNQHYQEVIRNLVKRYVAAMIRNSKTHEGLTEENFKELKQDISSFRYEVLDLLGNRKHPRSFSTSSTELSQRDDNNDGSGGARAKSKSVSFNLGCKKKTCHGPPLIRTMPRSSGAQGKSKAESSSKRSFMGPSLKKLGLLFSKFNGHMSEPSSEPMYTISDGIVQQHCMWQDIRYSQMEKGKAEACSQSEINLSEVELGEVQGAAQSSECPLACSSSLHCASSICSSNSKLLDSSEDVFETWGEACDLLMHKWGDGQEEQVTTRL
Procedure: HEK-293 cells expressing hTRPC5 were seeded into PDL-coated black-walled 96-well plates, with 2×10^4 cells per well. After 8 hours of culture, the original culture medium was discarded, and 60 µL of 4 µM Fluo-4/AM dye was added immediately. The cells were incubated at 37 °C for 60 minutes, and then rinsed with calcium flow detection buffer 5 times. The cell plates were placed in FLIPR®TETRA (Molecular Devices, Sunnyvale, CA, USA) preheated at 30 °C, excited at a wavelength of 488 nm, and the fluorescence signals were continuously recorded in the range of 515-535 nm with a sampling frequency of 1 s. After recording for 360 seconds, solvent control and test compounds were added, and the fluorescence signal was collected for another 600 seconds. The fluorescence signal of the trajectory diagram is represented by F/F0, wherein F is the fluorescence signal at different time points, and F0 is the basic fluorescence signal, that is, the average value of the fluorescence signal at the first 10 time points. The dose-effect diagram first took F/F0 =1 as the baseline. The area under the curve of the change in fluorescence intensity after adding test compound was calculated. IC50 value was calculated using log[agonist] vs. response - Variable slope, taking into account the area under the curve and the log value of the concentration of the compound.

[2] = Preliminary pharmacokinetic evaluation, plasma drug concentration after oral administration to mice; type: in vivo, ICR mice; details: male, ICR, mouse, oral 10 mg/kg, Mean ± SD, N = 3
Procedure: The test compound was prepared according to the following solvent: an aqueous solution of DMSO/Tween 80/0.5% (m/v) CMC-Na at a ratio of 2:2:96 (v/v/v), with a drug concentration of 1 mg/mL. Then, the test compound was gavaged to mice at a dosage of 10 mL/kg, with a dose of 10 mg/kg. Each compound was administered to 3 mice. At 1h and 4h after administration, about 50 µL of blood was collected from the orbital venous plexus of the mouse and placed in a centrifuge tube containing EDTA-K2 anticoagulant.

[3] = Liver microsome stability test, human; details: for Stability Evaluation / MF %: Human liver microsomes; for MF %: metabolic bioavailability
[4] = Liver microsome stability test, mouse; type: in vitro ADME; details: Mouse liver microsomes; for MF %: metabolic bioavailability
Source text: Calculation of Intrinsic Clearance: Clint = (1000 × slope)/(P); [formula]

hTRPC5 [5] = biological target: T1, hTRPC5; assay: TRPC5 inhibitory activity assay (FLIPR calcium fluorescence, Englerin A stimulation); type: cell-based; details: Table 1, TRPC5 channels, HEK-293 cells expressing hTRPC5; read-out: FLIPR IC50
Procedure: HEK-293 cells expressing hTRPC3, hTRPC4 or hTRPC5 were seeded into black-bottomed 96-well plates coated with poly-lysine (PDL), with 2×10^4 cells per well. After 8 h of culture, the original culture medium was discarded, and 60 µL of Fluo-4/AM dye with a final concentration of 4 µM was added. The plates were incubated at 37 °C for 60 min, and then rinsed five times with calcium flow detection buffer. […] Then, the agonist Englerin A (EA) (MedChemExpress, Shanghai, China, final concentration of 0.3nM) was added, and the fluorescence signal was collected for 600 seconds. The fluorescence signal of the trajectory diagram is represented by F/F0, wherein F is the fluorescence signal at different time points, and F0 is the basic fluorescence signal, that is, the average value of the fluorescence signal at the first 10 time points. […] The area under the curve of the change in fluorescence intensity after adding EA was calculated. IC50 value was calculated using log[Inhibitor] vs. response - Variable slope, taking into account the area under the curve and the log value of the concentration of the compound.

EC50 (hTRPC5 [1]) [nM]	MF % [3] [%]	SMILES	Stability Evaluation [3]	also measured
102	–	CC(C)C1CCC(F)(c2nc3c(c(=O)n(CCCO)c(=O)n3C)n2Cc2ccc(Cl)cc2)CC1 (centres unmarked) [Example E31, 7-(4-chlorobenzyl)-8-(1-fluoro-4-isopropylcyclohexyl)-1-(3-hydroxypropyl)-3-methyl-3,7-dihydro-1H-purine-2,6-dione]	–	–
170	–	Cn1c(=O)n(CCCO)c(=O)c2c1nc(C1(F)CCC(c3ccccc3)CC1)n2Cc1ccc(Cl)cc1 (centres unmarked) [Example E54, 7-(4-chlorobenzyl)-8-(1-fluoro-4-phenylcyclohexyl)-1-(3-hydroxypropyl)-3-methyl-3,7-dihydro-1H-purine-2,6-dione]	–	–
–	–	Cn1c(=O)n(CCCO)c(=O)c2c1nc(C1(F)CCC(F)(F)CC1)n2Cc1ccc(Cl)cc1F [Example E70, 7-(4-chloro-2-fluorobenzyl)-1-(3-hydroxypropyl)-3-methyl-8-(1,4,4-trifluorocyclohexyl)-3,7-dihydro-1H-purine-2,6-dione]	–	concentration at 1 h [2]: 1260 ± 167 ng/mL; concentration at 4 h [2]: 1200 ± 110 ng/mL
–	66.7	Cn1c(=O)n(CCCO)c(=O)c2c1nc(C1(F)CCC(F)(F)CC1)n2Cc1ccc(C#N)cc1 [Example E72, 4-((1-(3-hydroxypropyl)-3-methyl-2,6-dioxo-8-(1,4,4-trifluorocyclohexyl)-1,2,3,6-tetrahydro-7H-purin-7-yl)methyl)benzonitrile]	Medium (30%<MF%<70%, medium metabolic stability)	–
–	50.5	Cn1c(=O)n(CCCO)c(=O)c2c1nc(C1(F)CCC(F)(F)CC1)n2Cc1ccc(Cl)cc1 [Example E38, 7-(4-chlorobenzyl)-1-(3-hydroxypropyl)-3-methyl-8-(1,4,4-trifluorocyclohexyl)-3,7-dihydro-1H-purine-2,6-dione]	Medium (30%<MF%<70%, medium metabolic stability)	Stability Evaluation [4]: Medium (30%<MF%<70%, medium metabolic stability); MF % [4]: 42.1%
141	–	Cn1c(=O)n(CCCO)c(=O)c2c1cc(C1CCC(c3ccccc3)CC1)n2Cc1ccc(Cl)cc1 (centres unmarked) [Example E5, 5-(4-chlorobenzyl)-3-(3-hydroxypropyl)-1-methyl-6-(4-phenylcyclohexyl)-1,5-dihydro-2H-pyrrolo[3,2-d]pyrimidine-2,4(3H)-dione]	–	–
–	67.0	Cn1c(=O)n(CCCO)c(=O)c2c1nc(C1(F)CCC(F)(F)CC1)n2Cc1ccc(F)cc1 [Example E45, 7-(4-fluorobenzyl)-1-(3-hydroxypropyl)-3-methyl-8-(1,4,4-trifluorocyclohexyl)-3,7-dihydro-1H-purine-2,6-dione]	Medium (30%<MF%<70%, medium metabolic stability)	Stability Evaluation [4]: Medium (30%<MF%<70%, medium metabolic stability); MF % [4]: 59.1%
100 to 200	–	Cn1c(=O)n(CCCO)c(=O)c2c1nc(C1=CCC(F)(F)CC1)n2Cc1ccc(Cl)cc1 [Example E37, 7-(4-chlorobenzyl)-8-(4,4-difluorocyclohex-1-en-1-yl)-1-(3-hydroxypropyl)-3-methyl-3,7-dihydro-1H-purine-2,6-dione]	–	–
–	72.5	Cn1c(=O)n(CCCO)c(=O)c2c1nc(C1(F)CCC(F)(F)CC1)n2Cc1ccc(F)cc1F [Example E64, 7-(2,4-difluorobenzyl)-1-(3-hydroxypropyl)-3-methyl-8-(1,4,4-trifluorocyclohexyl)-3,7-dihydro-1H-purine-2,6-dione]	Better (MF% >70%, better metabolic stability)	Stability Evaluation [4]: Medium (30%<MF%<70%, medium metabolic stability); MF % [4]: 56.4%
–	77.4	Cn1c(=O)n(CCCO)c(=O)c2c1nc(C1(F)CCC(F)(F)CC1)n2Cc1cc(F)cc(F)c1 [Example E61, 7-(3,5-difluorobenzyl)-1-(3-hydroxypropyl)-3-methyl-8-(1,4,4-trifluorocyclohexyl)-3,7-dihydro-1H-purine-2,6-dione]	Better (MF% >70%, better metabolic stability)	–
242	–	Cn1c(=O)n(CCCO)c(=O)c2c1nc(C1(F)CC(c3ccccc3)C1)n2Cc1ccc(Cl)cc1 (centres unmarked) [Example E17, 7-(4-chlorobenzyl)-8-(1-fluoro-3-phenylcyclobutyl)-1-(3-hydroxypropyl)-3-methyl-3,7-dihydro-1H-purine-2,6-dione]	–	–
100 to 200	–	COC1(c2nc3c(c(=O)n(CCCO)c(=O)n3C)n2Cc2ccc(Cl)cc2)CCC(C)(C)CC1 [Example E26, 7-(4-chlorobenzyl)-1-(3-hydroxypropyl)-8-(1-methoxy-4,4-dimethylcyclohexyl)-3-methyl-3,7-dihydro-1H-purine-2,6-dione]	–	–
–	–	CC(C)n1c(=O)n(CCCO)c(=O)c2c1nc(C1(F)CCC(F)(F)CC1)n2Cc1ccc(F)cc1 [Example E46, 7-(4-fluorobenzyl)-1-(3-hydroxypropyl)-3-isopropyl-8-(1,4,4-trifluorocyclohexyl)-3,7-dihydro-1H-purine-2,6-dione]	–	concentration at 1 h [2]: 1170 ± 410 ng/mL; concentration at 4 h [2]: 576 ± 117 ng/mL
700	–	Cn1c(=O)n(CCCO)c(=O)c2c1nc(C1(F)CCC(N3CCCC3)CC1)n2Cc1ccc(Cl)cc1 (centres unmarked) [Example E55, 7-(4-chlorobenzyl)-8-(1-fluoro-4-(pyrrolidin-1-yl)cyclohexyl)-1-(3-hydroxypropyl)-3-methyl-3,7-dihydro-1H-purine-2,6-dione]	–	–
–	74.4	Cn1c(=O)n(CCCO)c(=O)c2c1nc(C1(F)CCC(C(F)(F)F)CC1)n2Cc1ccccc1 (centres unmarked) [Example E63, 7-benzyl-8-(1-fluoro-4-(trifluoromethyl)cyclohexyl)-1-(3-hydroxypropyl)-3-methyl-3,7-dihydro-1H-purine-2,6-dione]	Better (MF% >70%, better metabolic stability)	half-life at 1 µM ([3]; human, liver microsomes, pH 7.4): 311 min; IC50 (hTRPC5 [5]): 0.86 nM; concentration at 1 h [2]: 2800 ± 860 ng/mL; concentration at 4 h [2]: 2060 ± 755 ng/mL
74.5	–	CC(C)OC1CCC(F)(c2nc3c(c(=O)n(CCCO)c(=O)n3C)n2Cc2ccc(Cl)cc2)CC1 (centres unmarked) [Example E19, 7-(4-chlorobenzyl)-8-(1-fluoro-4-isopropoxycyclohexyl)-1-(3-hydroxypropyl)-3-methyl-3,7-dihydro-1H-purine-2,6-dione]	–	–

SMILES	EC50 (hTRPC5 [1]) [nM]	MF % [3] [%]	Stability Evaluation [3]	also measured
CC(C)n1c(=O)n(CCCO)c(=O)c2c1nc(C1CC1C1CC1)n2Cc1ccc(Cl)cc1 (centres unmarked) [Example E14, 8-([1,1'-bis(cyclopropan)]-2-yl)-7-(4-chlorobenzyl)-1-(3-hydroxypropyl)-3-isopropyl-3,7-dihydro-1H-purine-2,6-dione]	105	–	–	–
